Tests used:
CD8^+ T cells = test: Proliferation of CD8+ T cells (Ki67+ staining, flow cytometry) in tumor cell suspensions incubated with IL-15; assay type: cell-based, human
Method: (§1) Tumoral (Tu) and non-tumoral tissue (NTu) were obtained from 82 NSCLC patients undergoing neoadjuvant surgery. The characteristics of NSCLC patients are depicted in Table 2. Tissue samples obtained at the day of surgery were chopped into small pieces and incubated with agitation in RMPI 1640 medium (Gibco) with 100 ng/ml DNAse I and 20 ng/ml Collagenase D (both from Roche) for 45 minutes at 37° C. The cell suspension was then passed through the 100 μm strainer into 50 ml falcon tubes to obtain single cell suspensions. The infiltrated immune cell populations were analyzed by flow cytometry immediately after staining with specific antibodies for 30 min at 4° C. as described below. For further stimulation lymphocytes were counted and seeded into 96-well plates at the concentration of 1×10^6 lymphocytes/nil in RPMI-1640 medium supplemented with 10% heat-inactivated fetal bovine serum (PAA), 2 mM GlutaMAX I CTS (Gibco) and 100 U/ml penicillin+[…] streptomycin (Gibco). Cells were stimulated with 50 ng/ml PMA and 10 ng/ml ionomycin (both from Sigma-Aldrich) for 1 h at 37° C. before Brefeldin A (BioLegend, 1000×) was added for 3 h to detect intracellular IFN-γ in CD8^+ and CD4^+ T cells. In some experiments recombinant IL-15 (Peprotech, 13 ng/ml) was added to the cell culture and the proliferating CD8^+ T cells and NK cells were detected by flow cytometry after 3 and 7 days of incubation at 37° C. Cell viability was detected by DAPI (Thermo Fisher Scientific) or by LIVE/DEAD® Fixable Aqua Dead Cell Stain Kit 405 nm excitation (Invitrogen).
(§2) Cells were stained extracellularly with the mixture of appropriate antibody in PBS for 30 min at 4° C. For intracellular staining of IFN-γ, Foxp3, CD3 and Ki-67 the cells were fixed for 30 min using Fixation Buffer (eBioscience), permeabilized with Permeabilization Buffer (eBioscience) and stained intracellularly for 30 min at 4° C. Cells were washed with PBS and analyzed by LSRFortessa (BD Biosciences). Data were analyzed with FlowJo software (Tree Star). Flow cytometry data may be expressed as mean fluorescent intensity (MFI).
(§3) As PMA and ionomycin represent strong unspecific stimulation of immune cells, IL-15 was used to activate predominantly NK cells and CD8^+ T cells, playing a major role in antitumor immunity. Tumor cell suspensions were incubated alone or with IL-15 for 7 days. The proliferation of CD8^+ T cells and NK cells was analyzed on Day 0, 3 and 7 by Ki67^+ staining followed by flow cytometry. Whereas 68% and 79% of T cells and NK cells, respectively, proliferated on Day 3 of incubation in AC tumors, only 23% and 8% of T cells and NK cells, respectively, proliferated in SCC tumors, confirming a higher immunosuppressive environment in SCC than AC tumors (see Table 6).

NK cells (CD3^−CD56^+) = test: Proliferation of NK cells (Ki67+ staining, flow cytometry) in tumor cell suspensions incubated with IL-15; assay type: cell-based, human
Method: as §1, §2, §3

[1] = AC tumor cell suspension, Day 3, +IL-15
[2] = AC tumor cell suspension, Day 7, +IL-15
[3] = SCC tumor cell suspension, Day 3, +IL-15
[4] = SCC tumor cell suspension, Day 7, +IL-15

IL-15: recombinant IL-15 (Peprotech, 13 ng/ml) added to cell culture to activate predominantly NK cells and CD8+ T cells
Ki67^+ cells from CD8^+ T cells (CD8^+ T cells; [1]): 68% | Ki67^+ cells from CD8^+ T cells (CD8^+ T cells; [2]): 62% | Ki67^+ cells from CD8^+ T cells (CD8^+ T cells; [3]): 23% | Ki67^+ cells from CD8^+ T cells (CD8^+ T cells; [4]): 45% | Ki67^+ cells from CD3^−CD56^+ T cells (NK cells) (NK cells (CD3^−CD56^+); [1]): 79% | Ki67^+ cells from CD3^−CD56^+ T cells (NK cells) (NK cells (CD3^−CD56^+); [2]): 50% | Ki67^+ cells from CD3^−CD56^+ T cells (NK cells) (NK cells (CD3^−CD56^+); [3]): 8% | Ki67^+ cells from CD3^−CD56^+ T cells (NK cells) (NK cells (CD3^−CD56^+); [4]): 40%
